Data reported in patent publication US10173991B2, “Sulfone amide linked benzothiazole inhibitors of endothelial lipase” (BRISTOL-MYERS SQUIBB COMPANY, priority 2014, dated 2019).

These compounds were tested against Endothelial lipase (EL) (Homo sapiens (Human), UniProt Q9Y5X9) (assay: Endothelial lipase (EL) enzymatic assay with fluorescent substrate A10070 in DMPG vesicles). Details: not given.
Assay type: biochemical
Outline: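 EL from conditioned medium of HT-1080 cells engineered to overexpress endogenous EL; HL partially purified from conditioned medium of HL-overexpressing COS cells. Enzyme preincubated with compound 30 min at 37° C in 50 mM HEPES pH 8.0, 50 mM NaCl, 1 mM CaCl2; DMPG vesicles carrying FRET substrate (0.11 mole fraction) then added.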

Sequence of Endothelial lipase (EL) (Q9Y5X9 21-500): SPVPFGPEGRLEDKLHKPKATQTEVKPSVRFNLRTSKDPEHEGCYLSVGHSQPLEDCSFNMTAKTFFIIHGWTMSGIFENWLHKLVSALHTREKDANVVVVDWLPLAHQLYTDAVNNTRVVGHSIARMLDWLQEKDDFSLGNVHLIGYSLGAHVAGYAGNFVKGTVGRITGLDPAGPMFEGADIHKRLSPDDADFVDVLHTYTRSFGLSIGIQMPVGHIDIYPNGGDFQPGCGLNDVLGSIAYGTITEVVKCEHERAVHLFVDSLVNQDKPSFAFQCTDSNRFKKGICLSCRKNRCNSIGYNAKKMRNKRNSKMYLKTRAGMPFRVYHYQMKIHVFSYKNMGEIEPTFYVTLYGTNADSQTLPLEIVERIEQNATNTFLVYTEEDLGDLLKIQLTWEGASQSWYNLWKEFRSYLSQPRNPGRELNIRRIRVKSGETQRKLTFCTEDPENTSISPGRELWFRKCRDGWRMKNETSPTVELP

Compound	IC50 [µM]
Cc1cc(-c2cc3nc(C(C(=O)NCC(=O)NC4CC4)S(C)(=O)=O)sc3cc2F)cnn1 (stereo not drawn) [Example 361, N-[(cyclopropyl-carbamoyl)methyl]-2-[6-fluoro-5-(6-methylpyridazin-4-yl)-1,3-benzothiazol-2-yl]-2-methanesulfonyl-acetamide]	0.026
CC(C)S(=O)(=O)C(C(=O)NCC(=O)NC1CC1)c1nc2cc(C(F)(F)F)c(-c3ccccc3)cc2s1 (stereo not drawn) [Example 169, N-[(cyclopropyl-carbamoyl)methyl]-2-[6-phenyl-5-(trifluoromethyl)-1,3-benzothiazol-2-yl]-2-(propane-2-sulfonyl) acetamide]	0.026
O=C(CNC(=O)C(c1nc2cc(F)c(-c3cnc(-n4cccn4)nc3)cc2s1)S(=O)(=O)CCC(F)(F)F)NC1CC1 (stereo not drawn) [Example 584, N-[(cyclopropyl-carbamoyl)methyl]-2-{5-fluoro-6-[2-(1H-pyrazol-1-yl)pyrimidin-5-yl]-1,3-benzothiazol-2-yl}-2-(3,3,3-trifluoropropane-sulfonyl)acetamide]	0.064
CS(=O)(=O)C(C(=O)NCC(=O)NC1CC1)c1nc2cc(F)c(-c3cccc(C(N)=O)c3)cc2s1 (stereo not drawn) [Example 327, 3-[2-({[(cyclopropyl-carbamoyl)methyl]carbamoyl} (methanesulfonyl)methyl)-5-fluoro-1,3-benzothiazol-6-yl]benzamide]	0.019
COCCS(=O)(=O)C(C(=O)NCC(=O)NC1CC1)c1nc2cc(C(=O)OC(C)(C)C)ccc2s1 (stereo not drawn) [Example 427, tert-butyl 2-({[(cyclopropyl-carbamoyl)methyl]carbamoyl}(2-methoxyethane-sulfonyl)methyl)-1,3-benzothiazole-5-carboxylate]	0.066
CC(C)OCCNC(=O)CNC(=O)C(c1nc2ccc(-c3ccn(C)c(=O)c3)cc2s1)S(=O)(=O)c1ccc(F)cc1 (stereo not drawn) [Example 464, 2-(4-fluorobenzene-sulfonyl)-2-[6-(1-methyl-2-oxo-1,2-dihydropyridin-4-yl)-1,3-benzothiazol-2-yl]-N-({[2-(propan-2-yloxy)ethyl]carbamoyl}methyl)acetamide]	0.045
CC(C)S(=O)(=O)C(C(=O)NCC(=O)NC1CC1)c1nc2cc(F)c(-c3ccc4c(c3)CNC4=O)cc2s1 (stereo not drawn) [Example 236, N-[(cyclopropyl-carbamoyl)methyl]-2-[5-fluoro-6-(1-oxo-2,3-dihydro-1H-isoindol-5-yl)-1,3-benzothiazol-2-yl]-2-(propane-2-sulfonyl) acetamide]	0.016
COCCS(=O)(=O)C(C(=O)NCC(=O)NC1CC1)c1nc2ccc(-c3ccc(C(F)(F)F)nc3)cc2s1 (stereo not drawn) [Example 296, N-[(cyclopropyl-carbamoyl)methyl]-2-(2-methoxyethane-sulfonyl)-2-{6-[6-(trifluoromethyl)pyridin-3-yl]-1,3-benzothiazol-2-yl}acetamide]	0.069

Continued, values first:

IC50 [µM]	Compound
0.003	COCCOC(=O)Nc1ccc(-c2cc3sc(C(C(=O)NCC(=O)NC4CC4)S(C)(=O)=O)nc3cc2F)cc1 (stereo not drawn) [Example 533, 2-methoxyethyl N-{4-[2-({[(cyclopropyl-carbamoyl)methyl]carbamoyl} (methanesulfonyl)methyl)-5-fluoro-1,3-benzothiazol-6-yl]phenyl} carbamate]
0.003	COCCS(=O)(=O)C(C(=O)NCC(=O)NC1CC1)c1nc2cc(-c3ccccc3)c(F)cc2s1 (stereo not drawn) [Example 612, N-[(cyclopropyl-carbamoyl)methyl]-2-(6-fluoro-5-phenyl-1,3-benzothiazol-2-yl)-2-(2-methoxyethane-sulfonyl)acetamide]
0.002	CC(C)S(=O)(=O)C(C(=O)NCC(=O)NC1CC1)c1nc2cc(F)c(-c3ccc(NC(=O)OCc4ccccc4)cc3)cc2s1 (stereo not drawn) [Example 38, benzyl N-{4-[2-({[(cyclopropyl-carbamoyl)methyl]carbamoyl} (propane-2-sulfonyl)methyl)-5-fluoro-1,3-benzothiazol-6-yl]phenyl} carbamate]
0.002	COCC(C)(C)NC(=O)c1ccc(-c2ccc3nc(C(C(=O)NCC(=O)NC4CC4)S(C)(=O)=O)sc3c2)cc1 (stereo not drawn) [Example 560, 4-[2-({[(cyclopropyl-carbamoyl)methyl]carbamoyl} (methanesulfonyl)methyl)-1,3-benzothiazol-6-yl]-N-(1-methoxy-2-methylpropan-2-yl)benzamide]
0.015	O=C(CNC(=O)C(c1nc2cc(F)c(-c3ccc(NC(=O)OCc4ccccc4)nc3)cc2s1)S(=O)(=O)C1CC1)NC1CC1 (stereo not drawn) [Example 556, benzyl N-(5-{2-[(cyclopropane-sulfonyl) ({[(cyclopropyl-carbamoyl)methyl]carbamoyl)methyl]-5-fluoro-1,3-benzothiazol-6-yl}pyridin-2-yl) carbamate]
0.004	C[C@@H]1CN(C(=O)c2ccc(-c3ccc4nc(C(C(=O)NCC(=O)NC5CC5)S(C)(=O)=O)sc4c3)cc2)C[C@H](C)O1 (stereo partly drawn) [Example 570, N-[(cyclopropyl-carbamoyl)methyl]-2-(6-{4-[(2R,6S)-2,6-dimethyl-morpholine-4-carbonyl]phenyl}-1,3-benzothiazol-2-yl)-2-methanesulfonyl-acetamide]
0.012	COC(C)(C)CNC(=O)c1ccc(-c2ccc3nc(C(C(=O)NCC(=O)NC4CC4)S(C)(=O)=O)sc3c2)cc1 (stereo not drawn) [Example 571, 4-[2-({[(cyclopropyl-carbamoyl)methyl]carbamoyl} (methanesulfonyl)methyl)-1,3-benzothiazol-6-yl]-N-(2-methoxy-2-methylpropyl) benzamide]
0.01	CS(=O)(=O)C(C(=O)NCC(=O)NC1CC1)c1nc2cc(F)c(-c3ccc(N4CCCCC4=O)cc3)cc2s1 (stereo not drawn) [Example 201, N-[(cyclopropyl-carbamoyl)methyl]-2-{5-fluoro-6-[4-(2-oxopiperidin-1-yl)phenyl]-1,3-benzothiazol-2-yl}-2-methanesulfonyl-acetamide]
0.007	COc1ccc(OCCCS(=O)(=O)C(C(=O)NCC(=O)NC2CC2)c2nc3ccc(-c4ccc(F)nc4)cc3s2)cc1 (stereo not drawn) [Example 19, N-[(cyclopropyl-carbamoyl)methyl]-2-[6-(6-fluoropyridin-3-yl)-1,3-benzothiazol-2-yl]-2-[3-(4-methoxyphenoxy)propanesulfonyl] acetamide]
0.003	COCCS(=O)(=O)C(C(=O)NCC(=O)NC1CC1)c1nc2cc(F)c(-c3cccc(Cl)c3)cc2s1 (stereo not drawn) [Example 40, 2-[6-(3-chlorophenyl)-5-fluoro-1,3-benzothiazol-2-yl]-N-[(cyclopropyl-carbamoyl)methyl]-2-(2-methoxyethane-sulfonyl)acetamide]

Same assay, conditions: EL from conditioned media of HT-1080 cells; 30 min preincubation at 37° C.

IC50 [µM]	Compound
0.0045	COC(=O)Nc1ccc(-c2cc3sc(C(C(=O)NCC(=O)NC4CC4)S(C)(=O)=O)nc3cc2F)cc1OC (stereo not drawn) [Example 538, Methyl N-{4-[2({[(cyclopropylcarbamoyl)methyl]carbamoyl}(methanesulfonyl)methyl)-5-fluoro-1,3-benzothiazol-6-yl]-2-methoxyphenyl}carbamate]
0.0055	COCCS(=O)(=O)C(C(=O)NCC(=O)NC1CC1)c1nc2ccc(-c3ccc(C(=O)NCC(C)(C)COC)cc3)cc2s1 (stereo not drawn) [Example 559, 4-(2-(2-((2-(Cyclopropylamino)-2-oxoethyl)amino)-1-((2-methoxyethyl)sulfonyl)-2-oxoethyl)benzo[d]thiazol-6-yl)-N-(3-methoxy-2,2-dimethylpropyl)benzamide]
0.0066	O=C(CNC(=O)C(c1nc2ccc(-c3ccccc3)cc2s1)S(=O)(=O)c1ccccc1)NC1CC1 (stereo not drawn) [Example 430, 2-(Benzenesulfonyl)-N-[(cyclopropylcarbamoyl)methyl]-2-(6-phenyl-1,3-benzothiazol-2-yl)acetamide]
